# PMC11018795, “The regulatory relationship between NAMPT and PD-L1 in cancer and identification of a dual-targeting inhibitor” (EMBO Molecular Medicine, 2024)
# “And” between values parts separate entries of the source, which are not always exact repeats. Identical values can stand only once.
# Key:
# LLC cells = assay: MTT assay 48 h, LLC; format: cell-based, mouse
# Procedure: (§1) Cells (5 × 10^3/well) were seeded into a 96-well plate and cultured at 37 °C in a 5% CO2 incubator. […] At the final time point, 10 μl MTT solution (5 mg/ml, Sigma, Burlington, MA, USA) was added to each well and incubated for an additional 4 h at 37 °C in a 5% CO2 incubator. Then,100 μl of DMSO was added to each well and mixed thoroughly. Optical density was measured at 492 nm using a microplate reader (Molecular Devices, San Jose, CA, USA).
# A549 cells = assay: MTT assay 48 h, A549; format: cell-based, human
# Procedure: as §1
# [1] = system: LLC OE NAMPT cells co-cultured with T cells; assay: T cell-mediated tumor cell killing assay, LLC OE NAMPT; format: cell-based; conditions: Mus musculus, 100 nM, read-out: inhibition rate (T cell-mediated killing)
# Procedure: (§2) To acquire activated T cells, human peripheral blood mononuclear cells (PBMC; LTS1077, Yanjin Biological) were cultured in CTSTM AIIM VTM SFM (A3021002; Gibco) with ImmunoCult Human CD3/CD28/CD2 T-cell activator (25 µL/mL; […] Technologies, Cat#10970) for 48 h according to the manufacturer’s protocol. The experiments were performed using mouse anti-CD3 antibody (1 µg/mL; Thermo Scientific, 16-0032-82) and anti-CD28 antibody(5 µg/mL; Thermo Scientific, 16-0281-82). Cancer cells were allowed to adhere to the plates overnight and then incubated for 48 h with activated T cells in the presence or absence of DX ([…]). Different proportions of cancer cells and activated T cells were utilized according to the purpose of each experiment. The T-cell proliferation assay was 1:3; the T-cell killing assay was 1:10; T cells and cell debris were removed by PBS washing, and the living cancer cells were then quantified by a spectrometer at OD (570 nm) followed by crystal violet staining. page 12: Fig 3: […] expression patterns. […] Data was obtained from the TCGA database. (B) T cell-mediated tumor cell killing assay. T cells were co-cultured with LLC Vector, […] CQ-85, or BMS202. […] stained by crystal violet. The relative added value of activated T cells is shown below. Data are presented as mean ± SEM; *P < 0.05, **P < 0.01, ***P < 0.001, compared with control. n.s., not significant. […]
# PC9 cells = assay: MTT assay 48 h, PC9; format: cell-based, human
# Procedure: as §1
# NAMPT = NAMPT (Homo sapiens, UniProt P43490); assay: In vitro NAMPT activity assay (Abcam kit); format: biochemical; set-up: purchased Abcam ab221819
# Sequence of NAMPT (P43490 whole entry, species assumed): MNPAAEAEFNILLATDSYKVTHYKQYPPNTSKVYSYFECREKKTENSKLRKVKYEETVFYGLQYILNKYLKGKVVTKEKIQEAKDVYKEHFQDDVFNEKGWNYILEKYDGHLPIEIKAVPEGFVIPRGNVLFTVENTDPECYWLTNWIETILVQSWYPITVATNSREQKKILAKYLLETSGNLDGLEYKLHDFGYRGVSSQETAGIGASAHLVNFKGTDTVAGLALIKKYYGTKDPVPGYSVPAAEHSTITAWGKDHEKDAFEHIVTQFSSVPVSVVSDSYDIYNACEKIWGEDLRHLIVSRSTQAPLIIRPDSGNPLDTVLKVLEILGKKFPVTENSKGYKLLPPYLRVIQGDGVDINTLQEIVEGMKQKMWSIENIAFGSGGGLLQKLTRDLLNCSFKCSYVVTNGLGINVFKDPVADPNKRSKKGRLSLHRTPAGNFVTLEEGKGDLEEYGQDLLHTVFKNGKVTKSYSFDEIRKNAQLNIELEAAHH
# LLC Vector cells = assay: Cell viability 72 h, LLC Vector (Fig 4C); format: cell-based, mouse
# Procedure: as §1, with “In vitro cell viability was determined using a Cell Counting Kit-8 (MCE) assay. Cells (5 × 10^3/well) were seeded in 96-well culture plates. After 24 h, they were incubated with various concentrations of the test compounds for 48–72 h at 37 °C in a 5% CO2 incubator. Next, 10% of the CCK-8 solution was added to each well, and the plates were incubated for an additional 4 h at 37 °C. The optical density of each well was measured at 450 nm using a multimode plate reader (Molecular Devices, San Jose, CA, USA). Cells” for “Cells”
# [2] = system: LLC Vector cells co-cultured with T cells; assay: T cell-mediated tumor cell killing assay, LLC Vector; format: cell-based; conditions: Mus musculus, 100 nM, read-out: inhibition rate (T cell-mediated killing)
# Procedure: as §2
# A2780 cells = assay: Clonogenic assay, A2780; format: cell-based, human; conditions: 9 days
# Procedure: Cells (3 × 10^2/well) were plated in a six-well plate and the culture medium was replaced every 2 days. After culturing for 7–10 d, the cells were fixed with 4% paraformaldehyde for 15 min, stained with 0.1% crystal violet for 30 min, and imaged and counted.
# [3] = system: lung cancer organoids derived from lung cancer patients; assay: Patient-derived lung cancer organoid viability; format: cell-based, human; conditions: 100 nM; 9 days
# Procedure: Human lung cancer samples were obtained from Shengjing Hospital of China Medical University (IRB No. 2023PS1105K). The establishment of lung cancer patient-derived organoids was performed as described ([…] et al, [2019]). Organoids were seeded into 96-well plates and treated with the corresponding compounds for 9 days, and cell viability was determined by CellTiter Glo 3D cell viability assay (Promega, G9683).
# [4] = system: LLC OE N/P cells co-cultured with T cells; assay: T cell-mediated tumor cell killing assay, LLC OE N/P; format: cell-based; conditions: Mus musculus, 100 nM, read-out: inhibition rate (T cell-mediated killing)
# Procedure: as §2
# HCT-116 cells [5] = assay: Cell cycle analysis, HCT-116; format: cell-based, human
# Excerpt: Supplement 44321_2024_51_MOESM5_ESM.zip/Fig4-D.xlsx, sheet "Sheet1" | column: G0/G1; S; G2/M
# HCT-116 cells [6] = assay: Apoptosis assay (Annexin V/PI), HCT-116; format: cell-based, human; conditions: HCT116
# Procedure: The cells are treated with the compounds. After 48–72 h, the cells were harvested and washed twice with cold PBS. The cells were then stained with Annexin V/propidium iodide (PI) (BD Biosciences) and examined using a NovoCyte Flow Cytometer (ACEA Biosciences). Data were analyzed using NovoExpress software (ACEA Biosciences).
# H1299 cells = assay: MTT assay 48 h, H1299; format: cell-based, human; conditions: 1299
# Procedure: as §1
smiles,measurement,setting,value
CCN(CC)CCCOc1cccc(-c2cccc3c2CCN3C(=O)c2ncc(CNC(=NC#N)Nc3ccncc3)s2)c1 [LZFPN-90],Relative inhibition (敏感性),LLC cells; LLC,0.15
same,effect on relative viability of LLC cells,"LLC cells; MTT, 64 nM",basically had no effect
same,Relative inhibition (敏感性),A549 cells,0.24
same,inhibition at 0.1 µM,[1],~60%
same,Relative inhibition (敏感性),PC9 cells,0.29
same,IC50,NAMPT,0.028 µM
same,mode of NAMPT inhibition,NAMPT; concluded from NMN reversal of NAD+ reduction,NAMPT competitive inhibitor
same,Relative viability,"LLC Vector cells; LZ90 0.25 (nM), 0 = 100",89.7901 and 87.9705 and 96.555
same,Relative viability,LLC Vector cells; LZ90 1,87.3413 and 95.1235 and 101.277
same,Relative viability,LLC Vector cells; LZ90 4,85.618 and 92.9893 and 92.8571
same,Relative viability,LLC Vector cells; LZ90 16,83.9984 and 83.5338 and 75.7769
same,Relative viability,LLC Vector cells; LZ90 64,79.4506 and 87.9576 and 68.4293
same,Relative viability,LLC Vector cells; LZ90 256,70.355 and 68.0766 and 71.9586
same,inhibition at 0.1 µM,[2],~40%
same,Colony formation relative to Ctrl,A2780 cells; LZ90-H (2 nM),0.01
same,Colony formation relative to Ctrl,"A2780 cells; LZ90-L (0.5 nM), Ctrl = 1",0.64
same,Colony formation relative to Ctrl,A2780 cells; LZ90-M (1 nM),0.11
same,survival of lung cancer organoids,[3],the survival of the organoids was decreased significantly
same,inhibition at 0.1 µM,[4],~80%
same,Cell cycle G0/G1,HCT-116 cells [5]; LZ90 20,30.68 and 20.48 and 22.54
same,Cell cycle G2/M,HCT-116 cells [5]; LZ90 20,39.61 and 24.71 and 42.91
same,Cell cycle S,HCT-116 cells [5]; LZ90 20,43.42 and 36.35 and 37.23
same,Cell cycle G0/G1,HCT-116 cells [5]; LZ90 40,26.06 and 19.94 and 21.52
same,Cell cycle G2/M,HCT-116 cells [5]; LZ90 40,39.6 and 30.95 and 41.08
same,Cell cycle S,HCT-116 cells [5]; LZ90 40,42.06 and 38.61 and 38.5
same,Cell cycle G0/G1,HCT-116 cells [5]; LZ90 60,42.69 and 40.27 and 41.43
same,Cell cycle G2/M,HCT-116 cells [5]; LZ90 60,18.16 and 13.12 and 19.4
same,Cell cycle S,HCT-116 cells [5]; LZ90 60,43.44 and 39.68 and 39.66
same,Apoptotic cells (sum of both Annexin-positive quadrants),HCT-116 cells [6]; LZ90 15 nM,9.8 and 11.59 and 10.81
same,Apoptotic cells (sum of both Annexin-positive quadrants),HCT-116 cells [6]; LZ90 60 nM,14.57 and 17.94 and 17.19
same,Apoptotic cells (sum of both Annexin-positive quadrants),HCT-116 cells [6]; LZ90 240 nM,13.96 and 15.34 and 15.58
same,Relative inhibition (敏感性),H1299 cells,0.02
